Experimental data taken from the SangsterLogP compilation.

test: method code SF, from Rulke, H.; Friedel, A.; Martin, E.; Kottke, K.; Grafe, I.; Kuhmstedt, H. (1991). Investigations on the acidity ond partition properties of 1-phenyl-5-mercaptotetrazoles. Pharmazie, 46(6)456-457.

`S=c1[nH]nnn1-c1cccc(Br)c1` and `Cc1cccc(-n2nn[nH]c2=S)c1` are within 0.2 log units of each other in logP: 2.39 for the first, 2.29 for the second.

Going from `S=c1[nH]nnn1-c1ccc(Cl)c(Cl)c1` to `S=c1[nH]nnn1-c1ccc(Cl)cc1Cl`, the logP rises from 2.68 to 2.89.

Compared with `S=c1[nH]nnn1-c1ccc(Br)cc1`, `S=c1[nH]nnn1-c1ccc(Cl)cc1` is lower in logP: 2.54 for the first, 2.09 for the second.

`S=c1[nH]nnn1-c1cccc(Cl)c1` and `S=c1[nH]nnn1-c1cccc(Cl)c1Cl` are within 0.2 log units of each other in logP: 2.34 for the first, 2.41 for the second.

Going from `O=[N+]([O-])c1ccc(-n2nn[nH]c2=S)cc1` to `S=c1[nH]nnn1-c1ccc2ccccc2c1`, the logP rises from 1.99 to 2.63.

`S=c1[nH]nnn1-c1ccccc1I` gave a logP of 3.14.
